Experimental data taken from patent publication US7951562B2, “Method for glycosylating hydroxylysine residues in polypeptides or peptides” (Oulun Yliopisto, priority 2000, dated 2011).
Where “and” joins values, the source holds several entries; their conditions need not be identical. Equal values may be shown once.

What was measured:
Type in all cases: biochemical
[1] = target: T1, GGT activity of His-tagged LH3 (Homo sapiens, UniProt O60568); experiment: Effect of imidazole on GGT activity of His-tagged LH3 from Sf9 cells
T1 construct: human LH1 signal peptide (N, cleaved yes); made in house; host or cells: Sf9 insect cells, baculovirus (pFastBacI, BAC-TO-BAC)
T1 sequence (O60568 25-738): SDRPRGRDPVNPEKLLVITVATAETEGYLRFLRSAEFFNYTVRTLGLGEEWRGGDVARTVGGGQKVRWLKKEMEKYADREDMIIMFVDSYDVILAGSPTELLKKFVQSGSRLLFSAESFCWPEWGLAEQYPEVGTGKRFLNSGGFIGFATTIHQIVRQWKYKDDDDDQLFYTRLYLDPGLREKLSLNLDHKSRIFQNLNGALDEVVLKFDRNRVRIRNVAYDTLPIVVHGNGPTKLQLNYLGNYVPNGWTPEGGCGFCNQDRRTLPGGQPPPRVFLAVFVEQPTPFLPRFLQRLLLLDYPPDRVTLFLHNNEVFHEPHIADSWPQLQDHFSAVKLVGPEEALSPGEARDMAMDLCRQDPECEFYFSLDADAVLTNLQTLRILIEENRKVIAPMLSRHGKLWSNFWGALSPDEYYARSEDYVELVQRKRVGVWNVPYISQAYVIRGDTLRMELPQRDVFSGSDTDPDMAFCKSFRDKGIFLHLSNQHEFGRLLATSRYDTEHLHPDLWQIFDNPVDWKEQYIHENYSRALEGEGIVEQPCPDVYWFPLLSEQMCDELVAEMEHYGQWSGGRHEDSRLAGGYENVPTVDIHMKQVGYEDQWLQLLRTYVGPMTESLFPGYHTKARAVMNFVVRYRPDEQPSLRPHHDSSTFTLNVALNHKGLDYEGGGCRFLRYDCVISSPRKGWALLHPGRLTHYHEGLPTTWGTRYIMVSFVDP
Experimental: (§1) LH activity was assayed by a method based on the hydroxylation-coupled decarboxylation of 2-oxo(1-^14C)glutarate (Kivirikko and Myllylä 1982), synthetic peptide […] was used as a substrate. GGT activity was assayed as described elsewhere (Myllylä et al. 1975). The method is based on the transfer of radioactively (tritium) labelled glucose from UDP-glucose to galactosylhydroxylysyl residues in calf skin gelatin substrate and on the specific assay of the product of the enzyme reaction after alkaline hydrolysis.
(§2) LH3 was expressed in Sf9 cells as a protein with His-tag at the amino-terminus. This enabled us to use nickel column in the purification of the protein from the cell extract of insect cells, because nickel-charged agaroses are developed for the purification of recombinant proteins containing a polyhistidine (6×His) as a tag. […] No lysyl hydroxylase activity could be detected in the eluate, however. We have determined that imidazole is a potent inhibitor of lysyl hydroxylase activity. […] Imidazole in the concentration of 100 mM and 10 mM inactivated lysyl hydroxylase activity by 55% and 20%, respectively.

[2] = target: T2, lysyl hydroxylase activity of His-tagged LH3 (Homo sapiens, UniProt O60568); experiment: Inactivation of lysyl hydroxylase activity by imidazole
T2 construct: human LH1 signal peptide (N, cleaved yes); made in house; host or cells: Sf9 insect cells, baculovirus
T2 sequence (O60568 25-738): T1 sequence (O60568 25-738)
Experimental: as §1, §2

[3] = target: T3, GT activity of the protein produced in E. coli cells with human LH3 cDNA (Homo sapiens, UniProt O60568); experiment: Effect of imidazole on GT activity of protein produced in E. coli with human LH3 cDNA
T3 construct: made in house; host or cells: E. coli XL1-Blue (pQE30)
T3 sequence (O60568 25-738): T1 sequence (O60568 25-738)
Experimental: (§3) PFastBacI constructs for human LH1, LH2a, LH2b and LH3 were cleaved with BamHI and Hind III restriction enzymes and coding regions were subcloned into same site in E. coli expression vector pQE30 containing (His)6 tag at the amino terminus. Insert for C. elegans LH (corresponding to amino acids 14-730 in cDNA) was generated by PCR and ligated into SacI-PstI site of pOE30 vector. Constructs were transformed into E. coli XL1-Blue strain. Cultures were grown to OD600 of 0.6 at 37° C. Protein expression was induced by adding 1 mM IPTG and incubation was proceed at 30° C. for 5 hours. Cells were harvested and stored at −20° C. For activity measurements cell pellet was suspended to lysis buffer (0.4 M NaCl, 0.5% Nonident and 20 mM Tris-HCl pH 7.8, at 20° C.) and incubated in the presence of lysozyme (50 μg/ml), DNAase (10 μg/ml) and RNAase (10 μg g/ml) at room temperature for 30 minutes. Lysis was completed by sonication. Cell debris was pelleted and supernatant was used in the measurements.
(§4) GT and GGT activities were measured by a method based on the transfer of radioactively (tritium)-labeled sugar from UDP-sugar to hydroxylysyl or galactosylhydroxylysyl residues in a calf skin gelatin substrate, respectively (Myllylä et al. 1975). The specific detection of the reaction products was performed after alkaline hydrolysis.

[4] = target: T4, GGT activity of the protein produced in E. coli cells with human LH3 cDNA (Homo sapiens, UniProt O60568); experiment: Effect of imidazole on GGT activity of protein produced in E. coli with human LH3 cDNA
T4 construct: made in house; host or cells: E. coli XL1-Blue (pQE30)
T4 sequence (O60568 25-738): T1 sequence (O60568 25-738)
Experimental: as §3, §4

[5] = tested on: hydroxylysyl residues in a calf skin gelatin substrate; experiment: GT (galactosyltransferase) activity of recombinant proteins expressed in E. coli; conditions: E. coli cell supernatant, FIG. 12
From the text: The galactosyltransferase activity can be assayed as described in Myllylä et al. (1975). The method is based on the transfer of radioactively (tritium) labelled galactose from UDP-galactose to hydroxylysyl residues in calf skin gelatin substrate and on the specific assay of the product of the enzyme reaction after alkaline hydrolysis.

[6] = tested on: galactosylhydroxylysyl residues in calf skin gelatin substrate; experiment: GGT (glucosyltransferase) activity of recombinant proteins expressed in Sf9 insect cells; conditions: Sf9 cells, 72 hours after infection
From the text: The glucosyltransferase activity can be assayed as described in Myllylä et al. (1975). The method is based on the transfer of radioactively (tritium) labelled glucose from UDP-glucose to galactosylhydroxylysyl residues in calf skin gelatin substrate and on the specific assay of the product of the enzyme reaction after alkaline hydrolysis.
Commercially available baculovirus transfer vector pFastBacI in the BAC-TO-BAC™ expression system (Life technologies, Inc.) was modified to contain human LH1 signal peptide (Hautala et al., 1992) and His6 tag, and BamHI restriction site for insertion of the desired cDNA, nucleotides 289-2455 of LH3 cDNA (SEQ ID NO 6) (Valtavaara et al., 1998). The construct was confirmed by sequencing. The recombinant protein contains His tag at the amino-terminus after signal peptide cleavage. Insect cells were harvested 0-72 hours after infection and homogenized according to the protocol described earlier (Valtavaara et al., 1997).
Human LH1 signal peptide and His6 tag was inserted to the cDNA constructs of LH1 and LH2. The baculovirus transfer vector pFastBacI was modified so that human LH1 signal sequence followed by nine nucleotides of the amino-terminal end was ligated to the His6 tag followed by nucleotides for BamHI restriction site. The human cDNA sequence (LH1 or LH2) (SEQ ID NO 21, 23 and 25) starting from the likely amino-terminal end of the molecule was ligated to the BamHI site of the construct. Two expression constructs were generated for LH2, LH2a and LH2b (SEQ ID NO 23 and 25), both of them covered the nucleotides from 76 to 2267 (Valtavaara et al., 1997). The LH2b construct contained also the alternatively spliced exon sequence (Valtavaara 1999; Yeowell and Walker, 1999) between nucleotides 1500 and 1501 (SEQ ID NO 25). The constructs were confirmed by sequencing. Insect cells were grown and homogenized as described above.
as §1

[7] = tested on: hydroxylysyl residues in a calf skin gelatin substrate; experiment: GT activity of recombinant proteins expressed with baculovirus vector in Sf9 cells; conditions: baculovirus vector in insect cells, not shown
Experimental: Baculovirus transfer vector pFastBacI in the BAC-TO-BAC™ expression system was used to produce LH3 protein in Sf9 cells. The cDNA construct is in Example 1. The recombinant protein contains the His tag at the amino terminus after signal peptide cleavage. The cells were homogenized as described elsewhere (Valtavaara et al. 1997).
as §4

[8] = tested on: synthetic peptide IKGIKGIKG; experiment: LH activity of human LH isoforms expressed in E. coli; conditions: E. coli expression system, data not shown
From the text: The lysyl hydroxylase activity can be assayed by a method based on the hydroxylation-coupled decarboxylation of 2-oxo(1-^14C)glutarate (Kivirikko and Myllylä 1982), synthetic peptide […] was used as a substrate.
as §3

[9] = tested on: galactosylhydroxylysyl residues in a calf skin gelatin substrate; experiment: GGT activity of recombinant proteins expressed in E. coli; conditions: E. coli supernatant, 5 h IPTG induction, stored at −70° C. overnight; listed as LH cDNA

`c1c[nH]cn1` [imidazole] was tested, and the “effect on GGT activity” value ([1]; 10 mM to 100 mM imidazole) was “no effect”, the inhibition at 300000 µM ([1]; 300 mM imidazole) was 25% and the “inactivation of lysyl hydroxylase activity” value (from here on “inactivation”) ([2]; 10 mM imidazole) was 20%. For the same molecule, the “inactivation” value ([2]; 100 mM imidazole) was 55%, the “inactivation” value ([2]; 300 mM imidazole, 2 h on ice) was “almost complete inactivation” and the GT activity ([3]; 10 mM imidazole (no inhibitor: 760.000)) was 795.000 dpm/mg. For the same molecule, the GT activity ([3]; 100 mM imidazole (no inhibitor: 760.000)) was 605.000 dpm/mg, the inhibition at 300000 µM ([3]; 300 mM imidazole) was 60% and the GT activity ([3]; 300 mM imidazole (no inhibitor: 760.000)) was 310.000 dpm/mg. The GGT activity ([4]; 10 mM imidazole (no inhibitor: 667.000)) was 583.000 dpm/mg, the GGT activity ([4]; 100 mM imidazole (no inhibitor: 667.000)) was 599.000 dpm/mg and the inhibition at 300000 µM ([4]; 300 mM imidazole) was roughly 30%. The GGT activity ([4]; 300 mM imidazole (no inhibitor: 667.000)) was 459.000 dpm/mg.

B1: LH2b: recombinant human lysyl hydroxylase isoform 2, alternatively spliced form b (protein, listed as Homo sapiens)
chain: MGGCTVKPQLLLLALVLHPWNPCLGADSEKPSSIPTDKLLVITVATKESDGFHRFMQSAKYFNYTVKVLGQGEEWRGGDGINSIGGGQKVRLMKEVMEHYADQDDLVVMFTECFDVIFAGGPEEVLKKFQKANHKVVFAADGILWPDKRLADKYPVVHIGKRYLNSGGFIGYAPYVNRIVQQWNLQDNDDDQLFYTKVYIDPLKREAINITLDHKCKIFQTLNGAVDEVVLKFENGKARAKNTFYETLPVAINGNGPTKILLNYFGNYVPNSWTQDNGCTLCEFDTVDLSAVDVHPNVSIGVFIEQPTPFLPRFLDILLTLDYPKEALKLFIHNKEVYHEKDIKVFFDKAKHEIKTIKIVGPEENLSQAEARNMGMDFCRQDEKCDYYFSVDADVVLTNPRTLKILIEQNRKIIAPLVTRHGKLWSNFWGALSPDGYYARSEDYVDIVQGNRVGVWNVPYMANVYLIKGKTLRSEMNERNYFVRDKLDPDMALCRNAREMTLQREKDSPTPETFQMLSPPKGVFMYISNRHEFGRLLSTANYNTSHYNNDLWQIFENPVDWKEKYINRDYSKIFTENIVEQPCPDVFWFPIFSEKACDELVEEMEHYGKWSGGKHHDSRISGGYENVPTDDIHMKQVDLENVWLDFIREFIAPVTLKVFAGYYTKGFALLNFVVKYSPERQRSLRPHHDASTFTINIALNNVGEDFQGGGCKFLRYNCSIESPRKGWSFMHPGRLTHLHEGLPVKNGTRYIAVSFIDP
modifications: His6 tag; CDS (1)..(2277)
notes: recombinant human lysyl hydroxylase isoform 2, alternatively spliced form b
For B1, the “generation of GT activity” value [5] was “LH3 was the only one being able to generate GT activity”, the “GGT activity in cell lysates” value [6] was “none of these recombinant proteins had detectable GGT activity” and the “generation of GT activity” value [7] was “did not generated GT activity”. For the same molecule, the “LH activity” value [8] was “no LH activity can be found”.

B2: C. elegans LH: protein produced from Caenorhabditis elegans lysyl hydroxylase cDNA (amino acids 14-730) (protein)
chain: LLATTITDLPELVVVTVATENTDGLKRLLESAKAFDINIEVLGLGEKWNGGDTRIEQGGGQKIRILSDWIEKYKDASDTMIMFVDAYDVVFNADSTTILRKFFEHYSEKRLLFGAEPFCWPDQSLAPEYPIVEFGKRFLNSGLFMGYGPEMHKILKLKSVEDKDDDQLYYTMIYLDEKLRKELNMDLDSMSKIFQNLNGVIEDVELQFKEDGTPEAYNAAYNTKPLIVHGNGPSKSHLNYLGNYLGNRWNSQLGCRTCGLEVKESEEVPLIALNLFISKPIPFIEEVLQKIAEFDYPKEKIALYIYNNQPFSIKNIQDFLQKHGKSYYTKRVINGVTEIGDREARNEAIEWNKARNVEFAFLMDGDAYFSEPKVIKDLIQYSKTYDVGIIAPMIGQPGKLFTNFWGAIAANGYYARSEDYMAIVKGNRVGYWNVPFITSAVLFNKEKLEAMKDAYSYNKNLDPDMSMCKFARDNGHFLYIDNEKYYGFLIVSDEYAETVTEGKWHPEMWQIFENRELWEARYIHPGYHKIMEPEHVVDQACPDVYDFPLMSERFCEELIEEMEGFGRWSDGSNNDKRLAGGYENVPTRDIHMNQVGFERQWLYFMDTYVRPVQEKTFIGYYHQPVESNMMFVVRYKPEEQPSLRPHHDASTFSIDIALNKKGRDYEGGGVRYIRYNCTVPADEVGYAMMFPGRLTHLHEGLATTKGTRYIMVSFINP
modifications: Caenorhabditis elegans
B2 was tested, and the GGT enzyme activity [9] was 30.700 dpm/mg soluble protein and 21.000 dpm/mg soluble protein.
